Measurements published in US7241791B2, “Substituted 4-(indazol-3-yl)phenols” (Wyeth, priority 2002, dated 2007).

Target: T1, human ERα (Homo sapiens, UniProt P03372)
T1 sequence (P03372 1-595): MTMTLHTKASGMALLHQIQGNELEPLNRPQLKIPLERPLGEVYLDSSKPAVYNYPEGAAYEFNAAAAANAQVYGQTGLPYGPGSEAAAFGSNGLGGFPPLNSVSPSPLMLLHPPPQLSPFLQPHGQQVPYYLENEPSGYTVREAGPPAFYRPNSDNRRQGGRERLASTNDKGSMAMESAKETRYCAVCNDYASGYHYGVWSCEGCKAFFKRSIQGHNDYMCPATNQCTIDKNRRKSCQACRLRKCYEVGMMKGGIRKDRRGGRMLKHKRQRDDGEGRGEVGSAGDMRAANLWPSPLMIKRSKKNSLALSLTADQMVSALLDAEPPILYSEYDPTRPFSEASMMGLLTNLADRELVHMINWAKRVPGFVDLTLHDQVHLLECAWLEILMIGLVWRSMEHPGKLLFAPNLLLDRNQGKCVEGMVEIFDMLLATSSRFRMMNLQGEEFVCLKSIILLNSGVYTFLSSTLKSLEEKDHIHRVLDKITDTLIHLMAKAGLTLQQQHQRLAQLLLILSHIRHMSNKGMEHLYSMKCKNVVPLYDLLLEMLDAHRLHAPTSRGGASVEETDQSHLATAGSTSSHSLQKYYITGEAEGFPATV
Test: NF-κB luciferase reporter (ER/NF-KB-luc) in Ad5-wt-hERα infected HAECT-1 cells
Conditions: for IC50: ER/NF-KB-luc IC50, Ad5-wt-ER infected HAECT-1 cells, IL-1β; for Emax: HAECT1, read-out: ER/NF-KB-luc % E2, efficacy relative to the maximal inhibition observed with E2

Row | IC50 [µM] | Emax [%] | SMILES
1 | 0.48 | 79 | Oc1ccc(-c2nn(C3CCCC3)c3c(-c4ccc(C(F)(F)F)cc4)cccc23)cc1 [Example 237, 4-{1-cyclopentyl-7-[4-(trifluoromethyl)phenyl]-1H-indazol-3-yl}-phenol]
2 | 0.016 | 70 | Cc1ccccc1-c1cccc2c(-c3ccc(O)cc3)nn(C3CCCC3)c12 [Example 245, 4-[1-cyclopentyl-7-(2-methylphenyl)-1H-indazol-3-yl]phenol]
3 | 1.06 | 81 | Oc1ccc(-c2nn(Cc3ccccc3)c3c(F)cccc23)c(O)c1 [Example 151, 4-(1-benzyl-7-fluoro-1H-indazol-3-yl)benzene-1,3-diol]
4 | 0.214 | 78 | CCCn1nc(-c2ccc(O)cc2)c2cccc(-c3ccccc3)c21 [Example 111, 4-(7-phenyl-1-propyl-1H-indazol-3-yl)phenol]
5 | 0.087 | 81 | CC(C)n1nc(-c2ccc(O)cc2)c2cccc(-c3ccc(-c4ccccc4)cc3)c21 [Example 233, 4-[7-(1,1′-biphenyl-4-yl)-1-isopropyl-1H-indazol-3-yl]phenol]
6 | 0.011 | 74 | Oc1ccc(-c2nn(C3CCCC3)c3c(-c4cccs4)cccc23)cc1 [Example 238, 4-(1-cyclopentyl-7-thien-2-yl-1H-indazol-3-yl)phenol]
7 | 0.356 | 101 | Oc1ccc(-c2nn(-c3cccc(C(F)(F)F)c3)c3cc(O)ccc23)c(O)c1 [Example 26, 4-{6-hydroxy-1-[3-(trifluoromethyl)phenyl]-1H-indazol-3-yl}benzene-1,3-diol]
8 | 1.03 | 96 | CC(C)c1ccc(-n2nc(-c3ccc(O)cc3O)c3ccc(O)cc32)cc1 [Example 27, 4-[6-hydroxy-1-(4-isopropylphenyl)-1H-indazol-3-yl]benzene-1,3-diol]
9 | 0.328 | 71 | CCCn1nc(-c2ccc(OC(=O)CC)cc2)c2cccc(Cl)c21 [Example 123, 4-(7-chloro-1-propyl-1H-indazol-3-yl)phenyl propionate]
10 | – | 74 | CCCn1nc(-c2ccc(O)cc2O)c2ccc(O)cc21 [Example 1, 4-(6-hydroxy-1-propyl-1H-indazol-3-yl)benzene-1,3-diol]
11 | 0.098 | 42 | Cc1cc(O)ccc1-c1nn(C2CCCC2)c2c(-c3ccc(-c4ccccc4)cc3)cccc12 [Example 261, 4-[7-(1,1′-biphenyl-4-yl)-1-cyclopentyl-1H-indazol-3-yl]-3-methyl-phenol]
12 | – | 65 | Oc1ccc(-c2nn(Cc3ccccc3)c3c(C(F)(F)F)cccc23)cc1 [Example 147, 4-[1-benzyl-7-(trifluoromethyl)-1H-indazol-3-yl]phenol]
13 | – | 80 | Cc1cc(O)ccc1-c1nn(C(C)C)c2c(-c3ccc(O)c(O)c3)cccc12 [Example 250, 4-[3-(4-hydroxy-2-methylphenyl)-1-isopropyl-1H-indazol-7-yl]-benzene-1,2-diol]
14 | 0.636 | 120 | Oc1ccc(-c2nn(-c3ccc(Br)cc3)c3c(C(F)(F)F)cccc23)cc1 [Example 31, 4-[1-(4-bromophenyl)-7-(trifluoromethyl)-1H-indazol-3-yl]phenol]
15 | 0.142 | 83 | Oc1ccc(-c2nn(C3CCCC3)c3c(-c4ccccc4Cl)cccc23)cc1 [Example 243, 4-[7-(2-chlorophenyl)-1-cyclopentyl-1H-indazol-3-yl]phenol]
16 | 0.419 | 74 | Oc1ccc(-c2nn(C3CCCC3)c3c(F)cccc23)c(O)c1 [Example 88, 4-(1-cyclopentyl-7-fluoro-1H-indazole-3-yl)benzene-1,3-diol]
17 | 0.435 | 97 | CC(C)n1nc2c(F)cccc2c1-c1ccc(O)cc1O [Example 89, 4-(7-fluoro-2-isopropyl-2H-indazole-3-yl)benzene-1,3-diol]
18 | 0.191 | 68 | C=CCn1nc(-c2ccc(O)cc2C)c2cccc(Cl)c21 [Example 82, 4-(1-allyl-7-chloro-1H-indazol-3-yl)-3-methylphenol]
